According to a melting point compilation (Tetko et al.; mined from patent text by program, amines drawn as free bases though some values may be those of a salt):
Residues, ends and D or L forms follow the SMILES beside them. *: point of attachment. Cbz = O=C(OCc1ccccc1)*

SMILES | melting point
CC(C)N(C(C)C)S(=O)(=O)N[C@@H](Cc1ccc(Oc2nccc3cnccc23)cc1)C(=O)O | 112 °C
O=C1NC(N2CCN(c3cnccn3)CC2)c2ccccc21 (configuration not stated) | 242 to 246 °C
Cc1ccc(S(=O)(=O)NCCOS(=O)(=O)c2ccc(C)cc2)cc1 | 89 to 90 °C
COc1ccc(CC2NC(=O)NC2=O)cc1CCc1ccccc1 (configuration not stated) | 147 to 149 °C
Clc1ccc(-c2cncn3cnnc23)cc1 | 193 to 195 °C
Nc1c(-c2ccc(Cl)cc2)sc2ccccc12 | 152 to 154 °C
Cc1oc(-c2ccccc2)nc1CCOc1ccc(C[C@H](NCc2ccc(F)cc2)C(=O)O)cc1 | 184 to 186 °C
CC(C)c1cc(C(C)(C)C)cc(C=O)c1O | 128 to 130 °C
O=C1c2ccccc2C(=O)N1CCCN1c2ccccc2C(c2ccccc2)=Nc2cccnc21 | 170 to 172 °C
COC(=O)C(Br)Cc1ccc(OC)c(C(=O)NCc2ccc(C(F)(F)F)cc2)c1 (configuration not stated) | 110 to 111 °C
O=C1N(C(c2ccccc2)c2ccccc2)c2ccccc2C12COc1cc3c(cc12)CCCO3 (configuration not stated) | 208 to 211 °C
CCCc1nc(NCCO)nc(N2CCOCC2)n1 | 95 to 99 °C
NNCCCS(=O)(=O)O | 147 to 148 °C
COc1ccc(S(=O)(=O)C(C)(Cc2ccc(OCCN3CCCCC3)cc2)C(N)=O)cc1 (configuration not stated) | 98 °C
O=C(COc1ccc(Cl)cc1Cl)OCCOC(=O)c1cc(Oc2ccc(C(F)(F)F)cc2Cl)ccc1[N+](=O)[O-] | 111 to 118 °C
COC(=O)C(O)=CC(=O)c1cn(Cc2ccccc2)cc(Cc2ccccc2)c1=O | 148 to 150 °C
C#CCCCOc1cc(C=O)ccc1OC | 73 to 74 °C
CCOC(=O)C1=C(C)NC(c2c(F)cccc2F)=NC1c1ccc(F)cc1Cl (configuration not stated) | 163 to 165 °C
O=C(O)c1cccc(-c2ccc3ncn(Cc4ccc(Cl)cc4Cl)c3n2)c1 | 258 to 260 °C
Cc1nc(N2CCN(Cc3nc(C)n(-c4ccccc4)n3)C2=O)sc1C(=O)NCc1ccccc1 | 139 to 141 °C
N#Cc1c(Cl)cc(Cn2nnc(C(N)=O)c2N)cc1Cl | 238 to 240 °C
COC(=O)c1ccc(C(CCN(C)C)c2ncc[nH]2)cc1 (configuration not stated) | 102 to 104 °C
CS(=O)(=O)Nc1n[nH]c(-c2ccncc2)c1-c1ccc(F)cc1 | 168 to 170 °C
CNC(=O)N(C)C(=O)Nc1nc(C(Cl)(Cl)Cl)ns1 | 94 °C
Cc1csc(N2CCN(Cc3ccc(C(=O)Nc4ccc(F)cc4)cc3)C2=O)n1 | 206 to 207 °C
CC(C)Oc1ccc(N(N)C(=O)N(C)C)cc1Cl | 73 to 74 °C

SMILES | melting point
CC(C)Nn1c(CO)nc2c(N)nc3cccnc3c21 | 242 to 243 °C
COc1cccc(C(N)=O)c1[N+](=O)[O-] | 212 to 214 °C
CC(=O)OC12Oc3c(C(C)(C)C)cc(C(C)(C)C)cc3C1(OC(C)=O)C(=O)c1ccccc12 (configuration not stated) | 242 to 247 °C
CC1(C)COC(=O)N1c1nc(-c2cccc(C#N)c2)cs1 | 181 to 183 °C
COc1ccc2c(c1)c(-c1cc3c(C(=O)O)ccnc3[nH]1)cn2C | > 300 °C
O=C(O)C(OCc1ccc(-c2ccc(Cl)cc2)cc1)(C(F)(F)F)C(F)(F)F | 90 to 92 °C
Cc1ccc2cccc(OCc3c(C)ccc(NC(=O)CN4C(=O)c5ccccc5C4=O)c3C)c2n1 | 266 to 268 °C
O=C(Nc1ccc(C(F)(F)F)cc1)NC1CCN(S(=O)(=O)c2cccc(C(F)(F)F)c2)CC1 | 246 to 251 °C
Cc1onc(NS(=O)(=O)c2ccccc2-c2ccc(-c3ncccn3)cc2CN2CCC(C)(C)C2=O)c1C | 125 to 132 °C
CN(C)Cc1c[nH]c2ccc(Cl)cc12 | 127 to 130 °C
NNC(=O)c1cccc(C(=O)N(NC(=O)c2ccccc2)C(=O)c2ccccc2)c1 | 297 to 299 °C
N=C(N)NCCCC(NC(=O)C1CCCN1C(=O)OCc1ccccc1)C(=O)O (stereo not drawn) (Cbz-Pro-Arg-OH; configuration not given here) | 137 to 140 °C
NC(=O)c1cccc2[nH]c(-c3ccc(O)cc3)nc12 | 266 to 267 °C
Cn1nc(-c2cccs2)c(N)c1N | 154 to 155 °C
Clc1ccc(-c2cc(C3CCN(Cc4ccccc4Cl)CC3)n[nH]2)cc1 | 137 to 139 °C
O=CC(=Cc1ccccc1F)C(C=O)=Cc1ccccc1F | 141 to 142 °C
CCc1nc2c(cnn2CC)c(NC2CCOCC2)c1CNC(=O)c1cccc(C(=O)NCc2ccc(OC)c(Br)c2)c1 | 130 to 132 °C
CN(C)S(=O)(=O)CCCOc1ccc2ncnn2n1 | 151 to 153 °C
O=C(Nc1ccc(Oc2ccnc(NC3CCCCC3)n2)c2ccccc12)c1cc(F)cc(N2CCCCC2)c1 | 118 to 120 °C
c1cc2c(c(NC3=NCCO3)c1)CCCC2 | 101 to 103 °C
Cc1cc2c(c(C(C)(C)C)c1)OC(=O)C2Cl (configuration not stated) | 81 to 86 °C
Cc1nn(-c2ccccn2)c2[nH]c3ccccc3c(=S)c12 | 252 to 253 °C
CCN1C(C)=CC(=O)CS1(=O)=O | 90 to 92 °C
CN(CCN1CCNC1=C(C#N)C#N)Cc1ccc(CN2CCCCC2)o1 | 140 to 143 °C
CSc1cccc2c1Oc1ccccc1N2[Si](C)(C)C(C)(C)C | 61 to 62 °C
O=C(O)c1cccc(C(=O)O)c1S(=O)(=O)Nc1ccc(F)cc1C(F)(F)F | 250 to 254 °C

SMILES | melting point
CC(=O)c1ccc(-c2ccc(F)cc2)c(O)c1 | 152 to 154 °C
Brc1nc(-c2ccccc2)nc2ccccc12 | 132 °C
ON=C1CCc2c1sc1c2CCCC1 | 174 to 176 °C
COCCOc1ccc(OCC(O)CNCCOc2cccc(O)c2C(N)=O)cc1 (configuration not stated) | 176 to 179 °C
Cc1cc([N+](=O)[O-])cc2c1S(=O)C=N2 (configuration not stated) | > 250 °C
O=c1oc2ccccc2c(OCCN2CCOCC2)c1-c1ccccc1 | 97 °C
CNC(=S)C1(c2cccnc2)CCCCC1=O (configuration not stated) | 188 to 190 °C
COC(=O)[C@@H](OS(=O)(=O)c1ccc(C)cc1)[C@H](O)C1CC1 | 75 to 78 °C
CC(=O)OC1CSC(Oc2cccc(-c3cc(C)ccn3)c2)C(OC(C)=O)C1OC(C)=O (configuration not stated) | 116 °C
CN1CCN(Cc2ccc(-c3ccc(-c4cn([C@H]5CN6CCC5CC6)nn4)s3)cc2)CC1 | 214 °C
CCCCCCCCCCCCCCOc1ccc(CC(=O)CO)cc1 | 84 to 85 °C
Cn1c(=O)[nH]c2sccc2c1=O | 263 to 265 °C
CCC(=O)NC1(c2ccccc2Cl)C(=O)N(Cc2ccc(C(=O)NC(C)(C)C)cc2OC)c2ccc(Cl)cc21 (configuration not stated) | 249 °C
Nc1cnc(N2CCN(CCCC(=O)c3ccc(F)cc3)CC2)cc1N | 166 to 169 °C
CCCCCS(=O)(=O)NC(=O)CCc1cc(-c2ccccc2)nn1Cc1ccc(Cl)cc1Cl | 145 to 147 °C
CN(C)C(=O)C(C)(C)Sc1nc2ccccc2cc1-c1ccccc1 | 149 to 156 °C
COc1ccc(F)c(NCc2ccccc2)c1 | 56 to 58 °C
CC1(C)Cc2ccccc2C1c1cncnc1S (configuration not stated) | 184 to 186 °C
Cc1cc(C)c(N2CCCc3c2nn(C)c3N)c(Cl)c1 | 234 to 236 °C
CN1CCN(c2ccc3[nH]c(=O)oc(=O)c3c2)CC1 | 285 °C
COc1ccc(C(=O)Nc2c(Cl)cncc2Cl)c2[nH]cnc12 | 292 to 293 °C
CCOC(=O)CC[C@H](NC(=O)c1ccc(CCC2CNc3nc(NC(=O)C(C)(C)C)[nH]c(=O)c3C2)s1)C(=O)OCC (some centres not stated) | 169 to 170 °C
CCOC(=O)C(NC(=O)CNC(N)=O)C(=O)OCC | 140 to 142 °C
CCCn1nnn(-c2cc(OC(C)=O)c(Cl)cc2Cl)c1=O | 91 to 92 °C
O=C(NC1CC(=O)c2ccccc2C1)OCc1ccccc1 (configuration not stated) | 79.5 to 81.5 °C
Cc1ccc2ccc3c(c2c1)C(C)(C)C(=O)O3 | 88 to 89 °C

SMILES | melting point
COC(=O)CCc1sc(NC(=O)C[C@H]2O[C@H](c3cccc(OC)c3OC)c3cc(Cl)ccc3N(CC(C)(C)COC(C)=O)C2=O)nc1-c1ccccc1 | 168 °C
Cc1ccnc(P(=O)(O)O)c1 | 273 °C
Cc1c(Cc2ccccc2)c(=O)oc2cc(OCC(=N)NO)cc(OCC(=N)NO)c12 | 155 to 160 °C
Cc1sc2ncc(C(O)CC(O)c3ccccc3)n2c1C (configuration not stated) | 152 to 153 °C
CC(=O)Nc1cnc(-c2ccccc2)[nH]c1=O | 281 to 282 °C
CCCc1nc2c(N)nc3cc(C)ccc3c2o1 | 188 to 189 °C
CNc1nc(OCc2ccccc2)ccc1[N+](=O)[O-] | 149 °C
O=C(C=Cc1ccncc1)c1ccc([N+](=O)[O-])cc1 | 218 to 221 °C
COC1=CC2=CCC3C(=CCC4(C)C(=O)C(C)CC34)C2(C)CC1 (configuration not stated) | 124 to 129 °C
CCc1ccc(C=C2C(=O)c3cc(O)ccc3OC2c2ccc(CC)cc2)cc1 (configuration not stated) | 178 to 180 °C
CCCCCOc1ccc2cc(CCC(N)(CO)CO)ccc2c1 | 106 to 109 °C
Cc1cc(C)c(NC(=O)N(Cc2ccc3c(c2)-c2ccccc2-3)C2CCCCCC2)c(C)c1 | 123 to 124 °C
COc1ccccc1OC1CCN(C(=O)Cl)C1 (configuration not stated) | 80 to 81 °C
CC12CCC(O)CC1CCC1C2CCC2(C)C(c3ccnnc3)CCC12O (configuration not stated) | 210 to 213 °C
CSc1c(C(=O)NN2CCCCC2)nn(-c2ccc(Cl)cc2Cl)c1-c1ccc(Cl)cc1 | 172 to 174 °C
CSc1ccc2ncc(N)c(-c3ccccc3)c2c1 | 135 to 137 °C
Brc1c(C2=NOCCS2)sc2ccccc12 | 80 to 85 °C
NNCCCCS(=O)(=O)O | 152 to 154 °C
Clc1ccc2c(c1)Nc1cc(Cl)ccc1OCO2 | 194 to 196 °C
O=c1oc(-c2cccc(S(=O)C(F)(F)F)c2)nc2ccccc12 (configuration not stated) | 106 to 108 °C
CS(=O)CC(=O)c1ccc(F)cc1 (configuration not stated) | 94.5 to 96 °C
CC(C(=O)N(C)C)n1cc(Cl)c(-c2c(Cl)cccc2Cl)n1 (configuration not stated) | 126 to 128 °C
N#CC1(N)CCc2cccc(Cl)c2C1 (configuration not stated) | 67 to 69 °C
CCOC(=O)NC1N=C(c2ccc(Cl)cc2)c2oc3ccccc3c2NC1=O (configuration not stated) | > 260 °C
